Results reported in patent US20240316022A1 (TYRA BIOSCIENCES, INC., priority 2021, published 2024).
Structures can show the parent of a compound that is named as a salt. Where two headings read alike, the source gives them in different places.

Columns and labels:
Assay in all cases: Kinase binding assay (kinase-tagged T7 phage, qPCR), Kd
FGFR2 = target: T1, FGFR2 (Homo sapiens, UniProt P21802)
T1 construct: made in house; host or cells: E. coli derived from BL21, infected with T7 phage

FGFR1 = target: T2, FGFR1 (Homo sapiens, UniProt P11362)
T2 construct: made in house; host or cells: E. coli derived from BL21, infected with T7 phage
T2 sequence (P11362 22-822): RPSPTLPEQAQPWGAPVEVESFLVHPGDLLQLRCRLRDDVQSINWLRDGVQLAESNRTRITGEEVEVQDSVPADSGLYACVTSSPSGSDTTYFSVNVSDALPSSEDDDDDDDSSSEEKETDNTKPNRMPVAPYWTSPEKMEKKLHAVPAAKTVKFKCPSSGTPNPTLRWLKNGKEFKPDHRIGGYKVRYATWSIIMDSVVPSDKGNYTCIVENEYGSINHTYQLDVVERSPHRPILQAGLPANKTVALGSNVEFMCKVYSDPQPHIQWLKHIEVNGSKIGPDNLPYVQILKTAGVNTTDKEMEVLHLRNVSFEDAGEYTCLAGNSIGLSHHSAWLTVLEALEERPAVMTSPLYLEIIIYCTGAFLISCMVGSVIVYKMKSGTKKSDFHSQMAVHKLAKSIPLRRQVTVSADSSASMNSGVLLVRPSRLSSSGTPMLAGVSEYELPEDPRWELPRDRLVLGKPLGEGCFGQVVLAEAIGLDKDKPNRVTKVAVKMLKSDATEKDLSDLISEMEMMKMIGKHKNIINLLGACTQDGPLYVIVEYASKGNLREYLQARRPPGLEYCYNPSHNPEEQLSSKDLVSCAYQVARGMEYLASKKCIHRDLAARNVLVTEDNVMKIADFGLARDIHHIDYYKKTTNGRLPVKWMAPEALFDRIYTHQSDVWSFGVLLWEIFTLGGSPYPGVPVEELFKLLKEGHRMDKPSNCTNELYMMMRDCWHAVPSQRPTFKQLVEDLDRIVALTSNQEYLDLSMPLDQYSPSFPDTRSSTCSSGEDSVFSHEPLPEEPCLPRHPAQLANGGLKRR

FGFR3 = target: T3, FGFR3 (Homo sapiens, UniProt P22607)
T3 construct: made in house; host or cells: E. coli derived from BL21, infected with T7 phage
T3 sequence (P22607 23-806): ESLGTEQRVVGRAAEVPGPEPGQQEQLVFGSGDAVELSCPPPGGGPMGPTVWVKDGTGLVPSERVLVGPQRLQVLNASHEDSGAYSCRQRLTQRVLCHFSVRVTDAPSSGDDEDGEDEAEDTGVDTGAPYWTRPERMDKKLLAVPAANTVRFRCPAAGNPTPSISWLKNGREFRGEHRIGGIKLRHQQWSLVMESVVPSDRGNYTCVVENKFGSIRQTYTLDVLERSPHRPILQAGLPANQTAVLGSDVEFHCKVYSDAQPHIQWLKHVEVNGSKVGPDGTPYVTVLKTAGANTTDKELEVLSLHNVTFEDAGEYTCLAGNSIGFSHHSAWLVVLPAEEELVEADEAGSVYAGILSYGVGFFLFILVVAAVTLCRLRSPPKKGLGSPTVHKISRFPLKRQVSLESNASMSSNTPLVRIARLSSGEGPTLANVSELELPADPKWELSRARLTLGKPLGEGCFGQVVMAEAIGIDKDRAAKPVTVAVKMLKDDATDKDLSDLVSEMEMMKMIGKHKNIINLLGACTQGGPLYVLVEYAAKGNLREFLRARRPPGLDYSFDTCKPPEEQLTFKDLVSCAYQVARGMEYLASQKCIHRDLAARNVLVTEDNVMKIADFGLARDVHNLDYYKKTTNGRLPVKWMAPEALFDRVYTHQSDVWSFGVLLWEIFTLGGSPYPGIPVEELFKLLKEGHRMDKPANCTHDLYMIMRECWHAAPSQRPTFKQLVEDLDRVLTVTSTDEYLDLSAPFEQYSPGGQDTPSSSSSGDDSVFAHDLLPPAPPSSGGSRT

FGFR4 = target: T4, FGFR4 (Homo sapiens, UniProt P22455)
T4 construct: made in house; host or cells: E. coli derived from BL21, infected with T7 phage
T4 sequence (P22455 22-802): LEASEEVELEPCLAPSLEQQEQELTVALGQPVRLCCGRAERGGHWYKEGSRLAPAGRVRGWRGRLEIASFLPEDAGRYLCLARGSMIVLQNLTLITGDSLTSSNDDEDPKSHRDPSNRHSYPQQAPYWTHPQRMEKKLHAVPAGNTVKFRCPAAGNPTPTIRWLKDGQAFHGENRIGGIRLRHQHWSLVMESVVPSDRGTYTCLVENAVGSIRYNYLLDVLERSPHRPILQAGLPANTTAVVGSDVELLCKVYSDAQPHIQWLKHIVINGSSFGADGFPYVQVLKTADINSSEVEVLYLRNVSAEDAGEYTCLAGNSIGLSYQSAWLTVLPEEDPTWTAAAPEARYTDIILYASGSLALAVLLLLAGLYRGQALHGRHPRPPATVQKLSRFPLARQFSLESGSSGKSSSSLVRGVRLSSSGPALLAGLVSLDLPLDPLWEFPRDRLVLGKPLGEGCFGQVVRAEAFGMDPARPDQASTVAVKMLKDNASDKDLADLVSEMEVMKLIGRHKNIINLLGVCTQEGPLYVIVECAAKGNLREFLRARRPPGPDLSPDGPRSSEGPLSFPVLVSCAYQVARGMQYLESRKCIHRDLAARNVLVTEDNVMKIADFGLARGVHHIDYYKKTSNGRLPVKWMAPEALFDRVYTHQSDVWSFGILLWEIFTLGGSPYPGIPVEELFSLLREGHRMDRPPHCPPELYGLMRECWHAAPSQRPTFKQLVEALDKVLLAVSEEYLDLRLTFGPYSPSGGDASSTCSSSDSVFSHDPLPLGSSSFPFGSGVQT

T1 sequence (P21802 22-821): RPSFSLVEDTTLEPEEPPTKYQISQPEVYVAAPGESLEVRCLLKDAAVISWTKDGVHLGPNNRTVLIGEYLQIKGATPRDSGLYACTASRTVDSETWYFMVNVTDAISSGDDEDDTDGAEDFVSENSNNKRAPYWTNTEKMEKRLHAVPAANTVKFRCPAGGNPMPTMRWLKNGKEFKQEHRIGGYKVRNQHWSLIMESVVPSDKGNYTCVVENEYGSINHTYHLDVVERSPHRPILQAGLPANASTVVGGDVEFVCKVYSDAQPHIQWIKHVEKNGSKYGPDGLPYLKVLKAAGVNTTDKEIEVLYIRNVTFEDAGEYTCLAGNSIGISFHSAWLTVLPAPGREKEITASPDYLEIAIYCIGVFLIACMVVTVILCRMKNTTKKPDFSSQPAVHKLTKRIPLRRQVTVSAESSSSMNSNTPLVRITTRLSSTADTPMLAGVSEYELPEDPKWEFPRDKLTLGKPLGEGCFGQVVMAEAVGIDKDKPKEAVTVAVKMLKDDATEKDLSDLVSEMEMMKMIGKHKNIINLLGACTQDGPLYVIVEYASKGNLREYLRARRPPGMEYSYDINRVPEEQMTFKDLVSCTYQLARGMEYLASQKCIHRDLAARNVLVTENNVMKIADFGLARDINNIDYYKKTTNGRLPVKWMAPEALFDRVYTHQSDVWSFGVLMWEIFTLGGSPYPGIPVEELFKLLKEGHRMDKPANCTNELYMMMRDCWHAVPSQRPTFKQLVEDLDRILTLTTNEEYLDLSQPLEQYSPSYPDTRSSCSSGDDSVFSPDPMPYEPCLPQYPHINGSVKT

Structure (SMILES)	Kd (FGFR2; read-out: FGFR2 (Kd nM)) [nM]	Kd (FGFR1; read-out: FGFR1 (Kd nM)) [nM]	Kd (FGFR3; read-out: FGFR3 (Kd nM)) [nM]	Kd (FGFR4; read-out: FGFR4 (Kd nM)) [nM]	Kd (FGFR2) [nM]	Kd (FGFR1) [nM]	Kd (FGFR3) [nM]	Kd (FGFR4) [nM]
Cc1ncc(Cl)c([C@@H](C)Oc2ccc3[nH]nc(-c4ccc5c(c4)COC4(CCN(CC(F)(F)F)CC4)O5)c3c2)c1Cl [Example 167, 6-[5-[(1R)-1-(3,5-dichloro-2-methyl-4-pyridyl)ethoxy]-1H-indazol-3-yl]-1′-(2,2,2-trifluoroethyl)spiro[4H-1,3-benzodioxine-2,4′-piperidine]]	100 to 250	100 to 250	0.1 to 100	0.1 to 100	–	–	–	–
Cc1cnnc(C)c1[C@H](C)Oc1ccc2[nH]nc(-c3cc(C#N)cc(N4CCN(C)CC4)c3)c2c1 [Example 66, 3-[5-[(1S)-1-(3,5-dimethylpyridazin-4-yl)ethoxy]-1H-indazol-3-yl]-5-(4-methylpiperazin-1-yl)benzonitrile]	> 1000	> 1000	> 1000	250 to 1000	–	–	–	–
COCCNc1cc(-c2n[nH]c3ccc(O[C@H](C)c4c(Cl)cncc4Cl)cc23)ccn1 [Example 35, (R)-4-(5-(1-(3,5-Dichloropyridin-4-yl)ethoxy)-1H-indazol-3-yl)-N-(2-methoxyethyl)pyridin-2-amine]	0.1 to 100	0.1 to 100	0.1 to 100	0.1 to 100	–	–	–	–
COc1cc(-c2n[nH]c3ccc(O[C@H](C)c4c(C)cnnc4C)cc23)cc(C#N)c1F [Example 93, (R)-5-(5-(1-(3,5-dimethylpyridazin-4-yl)ethoxy)-1H-indazol-3-yl)-2-fluoro-3-methoxybenzonitrile]	> 1000	> 1000	> 1000	100 to 250	–	–	–	–
COc1cc2[nH]nc(-c3cc(C)c(OC)c(C#N)c3)c2cc1O[C@H](C)c1c(C)cnnc1C [Example 116, (R)-5-(5-(1-(3,5-dimethylpyridazin-4-yl)ethoxy)-6-methoxy-1H-indazol-3-yl)-2-methoxy-3-methylbenzonitrile]	0.1 to 100	0.1 to 100	0.1 to 100	0.1 to 100	–	–	–	–
C[C@@H](Oc1ccc2[nH]nc(-c3ccnc(N)c3)c2c1)c1c(Cl)cncc1Cl [Example 29, 4-[5-[(1R)-1-(3,5-dichloro-4-pyridyl)ethoxy]-1H-indazol-3-yl]pyridin-2-amine]	0.1 to 100	0.1 to 100	0.1 to 100	0.1 to 100	–	–	–	–
C[C@@H](Oc1ccc2[nH]nc(-c3ccnc(NCCO)c3)c2c1)c1c(Cl)cncc1Cl [Example 36, 2-[[4-[5-[(1R)-1-(3,5-Dichloro-4-pyridyl)ethoxy]-1H-indazol-3-yl]-2-pyridyl]amino]ethanol]	0.1 to 100	0.1 to 100	0.1 to 100	0.1 to 100	–	–	–	–
CCN1CCC2(CC1)CC(=O)c1cc(-c3n[nH]c4ccc(O[C@H](C)c5c(C)cnnc5C)cc34)ccc1O2 [Example 99, (R)-6-(5-(1-(3,5-dimethylpyridazin-4-yl)ethoxy)-1H-indazol-3-yl)-1′-ethylspiro[chroman-2,4′-piperidin]-4-one]	0.1 to 100	0.1 to 100	0.1 to 100	0.1 to 100	–	–	–	–
C[C@@H](Oc1ccc2[nH]nc(-c3cnc4c(c3)N(CCN3CCOCC3)CCO4)c2c1)c1c(Cl)cncc1Cl [Example 50, 7-[5-[(1R)-1-(3,5-dichloro-4-pyridyl)ethoxy]-1H-indazol-3-yl]-1-(2-morpholino-ethyl)-2,3-dihydropyrido[2,3-b][1,4]oxazine]	> 1000	> 1000	> 1000	0.1 to 100	–	–	–	–
C[C@@H](Oc1ccc2[nH]nc(-c3ccc(NC(=O)C4CC4)nc3)c2c1)c1c(Cl)cncc1Cl [Example 11, (R)—N-(5-(5-(1-(3,5-Dichloropyridin-4-yl)ethoxy)-1H-indazol-3-yl)pyridin-2-yl)cyclopropanecarboxamide]	100 to 250	0.1 to 100	0.1 to 100	0.1 to 100	–	–	–	–
CCOc1cc(OC)cc(-c2n[nH]c3ccc(O[C@H](C)c4c(C)cnnc4C)cc23)c1 [Example 52, 5-[(1R)-1-(3,5-dimethylpyridazin-4-yl)ethoxy]-3-(3-ethoxy-5-methoxy-phenyl)-1H-indazole]	250 to 1000	> 1000	100 to 250	0.1 to 100	–	–	–	–
C[C@@H](Oc1ccc2[nH]nc(-c3ccc(S(C)(=O)=O)nc3)c2c1)c1c(Cl)cncc1Cl [Example 10, (R)-5-(1-(3,5-Dichloropyridin-4-yl)ethoxy)-3-(6-(methylsulfonyl)pyridin-3-yl)-1H-indazole]	0.1 to 100	0.1 to 100	0.1 to 100	0.1 to 100	–	–	–	–
COc1cc(OC)cc(-c2n[nH]c3ccc(O[C@@H](C)c4c(C)cnnc4C)cc23)c1 [Example 58, 3-(3,5-dimethoxyphenyl)-5-[(1S)-1-(3,5-dimethylpyridazin-4-yl)ethoxy]-1H-indazole]	0.1 to 100	0.1 to 100	0.1 to 100	0.1 to 100	–	–	–	–
COc1ncc(-c2n[nH]c3ccc(O[C@H](C)c4c(Cl)cncc4Cl)cc23)cc1NC(=O)c1ccccn1 [Example 2, (R)—N-(5-(5-(1-(3,5-Dichloropyridin-4-yl)ethoxy)-1H-indazol-3-yl)-2-methoxypyridin-3-yl)picolinamide]	> 1000	> 1000	> 1000	0.1 to 100	–	–	–	–
C[C@@H](Oc1ccc2[nH]nc(-c3cnc4c(c3)N(C(=O)CN(C)C)CCO4)c2c1)c1c(Cl)cncc1Cl [Example 21, 1-[7-[5-[(1R)-1-(3,5-dichloro-4-pyridyl)ethoxy]-1H-indazol-3-yl]-2,3-dihydropyrido[2,3-b][1,4]oxazin-1-yl]-2-(dimethylamino)ethanone]	> 1000	> 1000	250 to 1000	0.1 to 100	–	–	–	–
C[C@@H](Oc1ccc2[nH]nc(-c3ccc4c(c3)COC3(CCNCC3)O4)c2c1)c1c(Cl)cncc1Cl [Example 94, (R)-6-(5-(1-(3,5-Dichloropyridin-4-yl)ethoxy)-1H-indazol-3-yl)-4H-spiro[benzo[d][1,3]dioxine-2,4′-piperidine] TFA salt]	–	–	–	–	0.1 to 100	0.1 to 100	0.1 to 100	0.1 to 100
Cc1cnnc(C)c1[C@@H](C)Oc1ccc2[nH]nc(-c3cc(C#N)cc(OC(C)C)c3)c2c1 [Example 57, 3-[5-[(1R)-1-(3,5-dimethylpyridazin-4-yl)ethoxy]-1H-indazol-3-yl]-5-isopropoxy-benzonitrile]	> 1000	250 to 1000	250 to 1000	0.1 to 100	–	–	–	–
COc1cc(C#N)cc(-c2n[nH]c3cc(OC)c(O[C@@H](C)c4c(C)cnnc4C)cc23)c1 [Example 97, (S)-3-(5-(1-(3,5-dimethylpyridazin-4-yl)ethoxy)-6-methoxy-1H-indazol-3-yl)-5-methoxybenzonitrile]	> 1000	> 1000	> 1000	250 to 1000	–	–	–	–
COc1ncc(-c2n[nH]c3ccc(O[C@H](C)c4c(Cl)cncc4Cl)cc23)cc1NC(=O)CCN(C)C [Example 31, N-[5-[5-[(1R)-1-(3,5-dichloro-4-pyridyl)ethoxy]-1H-indazol-3-yl]-2-methoxy-3-pyridyl]-3-(dimethylamino)propanamido]	> 1000	250 to 1000	100 to 250	100 to 250	–	–	–	–
COc1ncc(-c2n[nH]c3ccc(O[C@H](C)c4c(Cl)cncc4Cl)cc23)cc1NC(=O)c1cccc2cccnc12 [Example 3, (R)—N-(5-(5-(1-(3,5-Dichloropyridin-4-yl)ethoxy)-1H-indazol-3-yl)-2-methoxypyridin-3-yl)quinoline-8-carboxamide]	> 1000	> 1000	> 1000	250 to 1000	–	–	–	–
COc1c(C)cc(-c2n[nH]c3ccc(O[C@H](C)c4c(Cl)cncc4Cl)cc23)cc1C#N [Example 108]	250 to 1000	250 to 1000	0.1 to 100	0.1 to 100	–	–	–	–
Cc1cc(-c2n[nH]c3ccc(O[C@@H](C)c4c(C)cnnc4C)cc23)cc(C#N)n1 [Example 70, 4-[5-[(1S)-1-(3,5-Dimethylpyridazin-4-yl)ethoxy]-1H-indazol-3-yl]-6-methyl-pyridine-2-carbonitrile]	> 1000	> 1000	> 1000	> 1000	–	–	–	–
Cc1cnnc(C)c1[C@@H](C)Oc1ccc2[nH]nc(-c3cc(C#N)cc(C4CC4)c3)c2c1 [Example 84, 3-cyclopropyl-5-[5-[(1R)-1-(3,5-dimethyl-pyridazin-4-yl)ethoxy]-1H-indazol-3-yl]benzonitrile]	250 to 1000	250 to 1000	0.1 to 100	0.1 to 100	–	–	–	–
CCOCCOc1cc(C#N)cc(-c2n[nH]c3ccc(O[C@H](C)c4c(C)cnnc4C)cc23)c1 [Example 73, 3-[5-[(1R)-1-(3,5-dimethylpyridazin-4-yl)ethoxy]-1H-indazol-3-yl]-5-(2-ethoxyethoxy)-benzonitrile]	250 to 1000	> 1000	100 to 250	0.1 to 100	–	–	–	–
Cc1cnnc(C)c1[C@@H](C)Oc1ccc2[nH]nc(-c3cc(C#N)cc(N4CCN(C)CC4)c3)c2c1 [Example 62, 3-[5-[(1R)-1-(3,5-dimethylpyridazin-4-yl)ethoxy]-1H-indazol-3-yl]-5-(4-methylpiperazin-1-yl)benzonitrile]	> 1000	> 1000	> 1000	100 to 250	–	–	–	–
COc1cc(NCc2ccccn2)cc(-c2n[nH]c3ccc(O[C@H](C)c4c(Cl)cncc4Cl)cc23)c1 [Example 46, 3-[5-[(1R)-1-(3,5-dichloro-4-pyridyl)ethoxy]-1H-indazol-3-yl]-5-methoxy-N-(2-pyridyl-methyl)aniline]	> 1000	> 1000	> 1000	0.1 to 100	–	–	–	–
COc1cc2[nH]nc(-c3ccc(N(C)C)nc3)c2cc1O[C@H](C)c1c(Cl)cnc(C)c1Cl [Example 149, 5-[5-[(1R)-1-(3,5-dichloro-2-methyl-4-pyridyl)ethoxy]-6-methoxy-1H-indazol-3-yl]-N,N-dimethyl-pyridin-2-amine]	0.1 to 100	0.1 to 100	0.1 to 100	0.1 to 100	–	–	–	–
